Experimental data reported in patent US9855268B2, “Triazolo[4,5-d]pyrimidine derivatives” (Merck Patent GmbH, priority 2013, dated 2018).

Assays:
GCN2 [1] = target: T1, GCN2 (Homo sapiens, UniProt Q9P2K8); assay: GCN2 enzyme assay (TR-FRET Lanthascreen, GFP-eIF2alpha phosphorylation); assay type: biochemical; details: 10 μM ATP, 80 nM GFP-eIF2a, 30 nM GCN2
How it was run: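 Phosphorylation of GFP-eIF2alpha (80 nM) by GCN2 run at room temperature with 10 μM ATP. After EDTA quench, product quantified by Lanthascreen TR-FRET (antibody–GFP complex, 340 nm excitation).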
Target sequence in this assay (Q9P2K8 whole entry, species assumed): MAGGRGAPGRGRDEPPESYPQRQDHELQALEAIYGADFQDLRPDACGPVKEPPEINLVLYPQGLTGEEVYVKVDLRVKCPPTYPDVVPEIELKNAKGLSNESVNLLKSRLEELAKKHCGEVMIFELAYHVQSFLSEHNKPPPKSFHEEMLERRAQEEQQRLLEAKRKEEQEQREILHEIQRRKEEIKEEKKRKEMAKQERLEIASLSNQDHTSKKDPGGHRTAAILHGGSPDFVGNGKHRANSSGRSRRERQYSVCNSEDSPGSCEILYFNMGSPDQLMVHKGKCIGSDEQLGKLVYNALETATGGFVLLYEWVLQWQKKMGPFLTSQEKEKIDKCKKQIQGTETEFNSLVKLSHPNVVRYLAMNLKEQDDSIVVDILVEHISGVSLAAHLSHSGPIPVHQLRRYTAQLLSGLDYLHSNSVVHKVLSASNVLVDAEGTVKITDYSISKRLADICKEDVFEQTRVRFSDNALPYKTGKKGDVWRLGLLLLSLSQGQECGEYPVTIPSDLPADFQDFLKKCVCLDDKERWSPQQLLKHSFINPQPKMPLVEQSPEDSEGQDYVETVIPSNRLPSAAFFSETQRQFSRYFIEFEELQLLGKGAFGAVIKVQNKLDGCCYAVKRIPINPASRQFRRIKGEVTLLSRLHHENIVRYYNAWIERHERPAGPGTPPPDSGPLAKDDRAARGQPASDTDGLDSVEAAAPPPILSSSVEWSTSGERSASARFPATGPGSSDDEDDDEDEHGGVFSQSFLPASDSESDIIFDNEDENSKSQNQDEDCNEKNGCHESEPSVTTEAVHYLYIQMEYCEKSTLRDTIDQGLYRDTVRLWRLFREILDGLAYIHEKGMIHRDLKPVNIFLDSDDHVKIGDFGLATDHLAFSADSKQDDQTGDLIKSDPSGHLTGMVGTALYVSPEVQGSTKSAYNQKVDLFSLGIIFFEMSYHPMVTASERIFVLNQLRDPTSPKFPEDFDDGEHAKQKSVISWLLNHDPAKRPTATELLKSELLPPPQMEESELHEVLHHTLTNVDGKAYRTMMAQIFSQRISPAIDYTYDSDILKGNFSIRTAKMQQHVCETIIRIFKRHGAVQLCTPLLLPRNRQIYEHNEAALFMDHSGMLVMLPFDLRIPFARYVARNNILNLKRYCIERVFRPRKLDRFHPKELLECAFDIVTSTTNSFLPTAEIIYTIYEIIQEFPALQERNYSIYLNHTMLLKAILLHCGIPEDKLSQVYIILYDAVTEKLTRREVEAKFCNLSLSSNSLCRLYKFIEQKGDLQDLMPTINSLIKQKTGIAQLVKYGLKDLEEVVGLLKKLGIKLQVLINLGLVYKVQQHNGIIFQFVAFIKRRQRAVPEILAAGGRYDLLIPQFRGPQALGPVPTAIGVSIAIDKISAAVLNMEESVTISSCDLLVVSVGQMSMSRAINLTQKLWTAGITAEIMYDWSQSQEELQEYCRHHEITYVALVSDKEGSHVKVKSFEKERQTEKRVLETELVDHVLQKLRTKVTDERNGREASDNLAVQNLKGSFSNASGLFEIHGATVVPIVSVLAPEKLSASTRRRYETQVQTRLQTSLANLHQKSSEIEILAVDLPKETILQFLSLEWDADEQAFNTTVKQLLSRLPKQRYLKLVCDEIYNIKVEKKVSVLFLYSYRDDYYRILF

GSK3α(h) = GSK3α(h) (Homo sapiens, UniProt P49840); assay: GSK3α radiometric kinase assay (33P-ATP, phospho GS2 peptide); assay type: biochemical; details: read-out: IC50 GSK3α (enzyme assay)
GSK3α(h), sequence (P49840 whole entry): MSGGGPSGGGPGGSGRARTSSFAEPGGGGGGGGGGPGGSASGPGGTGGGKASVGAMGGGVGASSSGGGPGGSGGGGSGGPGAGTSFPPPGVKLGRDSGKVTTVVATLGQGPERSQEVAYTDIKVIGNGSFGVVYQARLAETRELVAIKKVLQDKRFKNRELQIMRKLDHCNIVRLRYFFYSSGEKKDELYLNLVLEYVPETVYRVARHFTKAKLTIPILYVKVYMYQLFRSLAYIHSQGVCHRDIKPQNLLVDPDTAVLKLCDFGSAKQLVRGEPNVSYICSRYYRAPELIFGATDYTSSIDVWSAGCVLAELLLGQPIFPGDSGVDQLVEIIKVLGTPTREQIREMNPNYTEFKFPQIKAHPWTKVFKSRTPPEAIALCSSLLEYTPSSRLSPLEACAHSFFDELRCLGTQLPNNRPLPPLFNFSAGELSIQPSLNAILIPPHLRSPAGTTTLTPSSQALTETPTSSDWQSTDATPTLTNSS
How it was run: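 Human GSK3α incubated with 20 μM phospho-GS2 peptide in 8 mM MOPS pH 7,0, 10 mM Mg-acetate and [γ-33P]ATP (concentration as required), started with MgATP. After 40 minutes at room temperature, stopped with phosphoric acid; 33P incorporation measured by filtermat spotting and scintillation counting.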

GCN2 [2] = target: T1, GCN2; assay: Cellular assay of GCN2 activity (phospho-eIF2alpha immunocytochemistry after tryptophanol); assay type: cell-based; parameters: endogenous in cells; host or cells: U2OS; details: Human U2OS cells, 2 h compound, 600 μM tryptophanol 30 min
How it was run: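 Readout in human U2OS cells: compound pretreatment 2 h, then tryptophanol (600 μM final) for 30 min to trigger GCN2 signalling. Fixed, permeabilised cells quantified by immunocytochemistry for phosphorylation, normalised to DMSO controls as % effect; IC50 from concentration-response.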
Target sequence in this assay (Q9P2K8 whole entry): as the sequence (Q9P2K8 whole entry, species assumed) above

GSK3β(h) = GSK3β(h) (Homo sapiens, UniProt P49841); assay: GSK3β radiometric kinase assay (33P-ATP, phospho GS2 peptide); assay type: biochemical; details: read-out: IC50 GSK3β (enzyme assay)
GSK3β(h), sequence (P49841 whole entry): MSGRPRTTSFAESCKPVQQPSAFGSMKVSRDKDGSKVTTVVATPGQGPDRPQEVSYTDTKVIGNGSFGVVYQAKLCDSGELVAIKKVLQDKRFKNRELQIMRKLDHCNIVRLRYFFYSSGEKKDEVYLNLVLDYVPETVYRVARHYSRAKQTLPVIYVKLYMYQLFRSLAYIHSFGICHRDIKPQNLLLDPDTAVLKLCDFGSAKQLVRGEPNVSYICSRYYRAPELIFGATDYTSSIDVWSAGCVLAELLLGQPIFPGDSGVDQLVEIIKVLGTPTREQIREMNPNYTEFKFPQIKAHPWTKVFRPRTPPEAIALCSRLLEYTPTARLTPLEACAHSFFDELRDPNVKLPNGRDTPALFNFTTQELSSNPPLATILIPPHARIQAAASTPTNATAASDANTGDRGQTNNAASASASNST
How it was run: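 Human GSK3β in 8 mM MOPS pH 7,0, 0,2 mM EDTA, 10 mM Mg-acetate with 20 μM phospho-GS2 peptide; the reaction was started with [γ-33P]MgATP at an unstated level. After 40 min at room temperature it was stopped with phosphoric acid, and the peptide was captured on P30 filtermat for scintillation counting.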

How did the IC50 (GCN2 [1]) turn out when `Cc1ccc2cc(-n3nnc4cnc(N[C@H]5CC[C@H](C(N)=O)C5)nc43)ccc2n1` [A193, (1S,3S)-3-[3-(2-methyl-quinolin-6-yl)-3H-[1,2,3]triazolo[4,5-d]pyrimidin-5-ylamino]-cyclopentanecarboxylic acid amide] was run?
Its IC50 is less than 1 µM.

What about the IC50 (GSK3α(h)) of the same compound?
The IC50 was less than 1 µM.

And the IC50 (GCN2 [2])?
The IC50 was 1 to 5 µM.

What about the IC50 (GSK3β(h)) of the same compound?
Its IC50 is less than 1 µM.

Which IC50 (GCN2 [1]) does the source give for `CC(C)(O)Cn1cc(-c2ccc(-n3nnc4cnc(N[C@@H]5CC[C@@H](O)C5)nc43)cc2)cn1` [A232, (1R,3R)-3-(3-{4-[1-(2-hydroxy-2-methyl-propyl)-1H-pyrazol-4-yl]-phenyl}-3H-[1,2,3]triazolo[4,5-d]pyrimidin-5-ylamino)-cyclopentanol] here?
Its IC50 is less than 1 µM.

What about the IC50 (GSK3α(h)) of the same compound?
Its IC50 is less than 1 µM.

What about the IC50 (GCN2 [2]) of the same compound?
Its IC50 is 5 to 10 µM.

And the IC50 (GSK3β(h))?
The IC50 was less than 1 µM.

For `Cc1nc(CCn2cc(-c3ccc(-n4nnc5cnc(N[C@@H]6CC[C@@H](C(N)=O)C6)nc54)cc3)cn2)no1` [A220, (1R,3R)-3-[3-(4-{1-[2-(5-methyl-[1,2,4]oxadiazol-3-yl)-ethyl]-1H-pyrazol-4-yl}-phenyl)-3H-[1,2,3]triazolo[4,5-d]pyrimidin-5-ylamino]-cyclopentanecarboxylic acid amide], which IC50 (GCN2 [1]) is on record?
The IC50 was less than 1 µM.

What about the IC50 (GSK3α(h)) of the same compound?
The IC50 was less than 1 µM.

What about the IC50 (GCN2 [2]) of the same compound?
The IC50 was less than 1 µM.

And the IC50 (GSK3β(h))?
Its IC50 is less than 1 µM.
